PMC10175918 (Communications Biology, 2023)
Read-outs that look alike come from different tables or passages of the source.

Key:
Test in all cases: TGFα-shedding assay-based GPCR screening with chimeric Gα subunit proteins
Type in all cases: cell-based
[1] = target: T1, 348 GPCRs (Homo sapiens, UniProt P30556); conditions: 10µM, Favipiravir 100μM
T1 construct: expressed in transfected cells; host or cells: HEK293A
T1 sequence (P30556 1-359): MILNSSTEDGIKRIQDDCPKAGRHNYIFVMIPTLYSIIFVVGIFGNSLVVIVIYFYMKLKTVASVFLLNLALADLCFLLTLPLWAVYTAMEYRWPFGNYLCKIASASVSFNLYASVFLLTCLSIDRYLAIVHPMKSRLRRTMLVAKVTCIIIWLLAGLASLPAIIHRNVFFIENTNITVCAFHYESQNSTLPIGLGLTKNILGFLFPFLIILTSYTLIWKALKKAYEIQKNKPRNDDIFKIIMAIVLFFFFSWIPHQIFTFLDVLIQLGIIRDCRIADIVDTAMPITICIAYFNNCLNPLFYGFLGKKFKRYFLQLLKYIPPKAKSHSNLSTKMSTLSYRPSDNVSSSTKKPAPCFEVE

[2] = target: T2, 348 GPCRs (Homo sapiens, UniProt Q15760); conditions: 10µM, Favipiravir 100μM
T2 construct: expressed in transfected cells; host or cells: HEK293A

[3] = target: T3, 348 GPCRs (Homo sapiens, UniProt Q86SM8); conditions: 10µM, Favipiravir 100μM
T3 construct: expressed in transfected cells; host or cells: HEK293A

[4] = target: T4, 348 GPCRs (Homo sapiens, UniProt Q86SQ4); conditions: 10µM, Favipiravir 100μM
T4 construct: expressed in transfected cells; host or cells: HEK293A
T4 sequence (Q86SQ4 38-1221): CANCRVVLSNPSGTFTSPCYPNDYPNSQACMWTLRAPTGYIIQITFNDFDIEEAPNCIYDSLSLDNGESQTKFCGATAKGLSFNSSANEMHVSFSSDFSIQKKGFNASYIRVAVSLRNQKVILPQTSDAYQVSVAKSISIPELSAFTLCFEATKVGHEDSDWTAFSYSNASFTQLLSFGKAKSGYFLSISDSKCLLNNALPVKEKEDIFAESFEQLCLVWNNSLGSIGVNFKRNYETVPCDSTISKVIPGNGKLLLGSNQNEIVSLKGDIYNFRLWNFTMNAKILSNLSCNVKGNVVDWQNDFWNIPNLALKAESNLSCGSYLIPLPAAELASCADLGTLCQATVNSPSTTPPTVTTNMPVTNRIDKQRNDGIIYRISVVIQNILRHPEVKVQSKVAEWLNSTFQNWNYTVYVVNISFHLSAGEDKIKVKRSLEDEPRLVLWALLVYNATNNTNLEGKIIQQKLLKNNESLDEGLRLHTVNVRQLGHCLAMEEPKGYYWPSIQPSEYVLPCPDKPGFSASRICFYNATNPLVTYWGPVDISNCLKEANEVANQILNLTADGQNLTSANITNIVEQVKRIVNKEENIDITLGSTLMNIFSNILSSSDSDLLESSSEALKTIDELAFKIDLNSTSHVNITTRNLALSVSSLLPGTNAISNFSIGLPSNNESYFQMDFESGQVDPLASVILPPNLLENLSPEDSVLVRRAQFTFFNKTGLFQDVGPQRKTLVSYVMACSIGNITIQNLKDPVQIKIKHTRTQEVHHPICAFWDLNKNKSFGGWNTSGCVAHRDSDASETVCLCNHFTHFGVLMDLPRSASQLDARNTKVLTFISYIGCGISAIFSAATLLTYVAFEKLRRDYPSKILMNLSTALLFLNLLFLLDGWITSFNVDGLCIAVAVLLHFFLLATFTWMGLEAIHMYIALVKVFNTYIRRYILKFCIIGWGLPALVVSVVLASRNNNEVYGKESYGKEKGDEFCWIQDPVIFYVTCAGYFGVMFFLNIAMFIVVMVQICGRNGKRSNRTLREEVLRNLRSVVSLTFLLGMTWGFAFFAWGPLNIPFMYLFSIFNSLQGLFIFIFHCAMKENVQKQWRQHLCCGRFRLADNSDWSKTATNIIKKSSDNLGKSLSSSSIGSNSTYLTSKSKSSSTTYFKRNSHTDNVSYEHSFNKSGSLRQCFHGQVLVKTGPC

[5] = target: T5, 348 GPCRs (Homo sapiens, UniProt Q8IZP9)
T5 construct: expressed in transfected cells; host or cells: HEK293A

[6] = target: T6, 348 GPCRs (Homo sapiens, UniProt Q96P66)
T6 construct: expressed in transfected cells; host or cells: HEK293A
T6 sequence (Q96P66 1-508): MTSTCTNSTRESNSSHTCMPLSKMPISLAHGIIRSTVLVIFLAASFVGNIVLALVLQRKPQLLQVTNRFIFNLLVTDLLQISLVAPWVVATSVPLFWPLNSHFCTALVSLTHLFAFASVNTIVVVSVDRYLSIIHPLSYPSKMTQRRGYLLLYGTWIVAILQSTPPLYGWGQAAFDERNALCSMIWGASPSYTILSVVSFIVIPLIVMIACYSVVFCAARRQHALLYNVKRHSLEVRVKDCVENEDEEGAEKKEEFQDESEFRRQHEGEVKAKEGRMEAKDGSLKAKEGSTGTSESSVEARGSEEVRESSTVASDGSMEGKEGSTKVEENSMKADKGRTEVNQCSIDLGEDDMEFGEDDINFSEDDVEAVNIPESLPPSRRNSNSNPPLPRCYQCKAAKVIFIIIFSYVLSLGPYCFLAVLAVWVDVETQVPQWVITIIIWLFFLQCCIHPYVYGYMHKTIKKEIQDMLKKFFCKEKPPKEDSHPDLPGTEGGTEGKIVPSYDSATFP

[7] = target: T7, 348 GPCRs (Homo sapiens, UniProt Q9NYV7); conditions: 10µM, Favipiravir 100μM
T7 construct: expressed in transfected cells; host or cells: HEK293A
T7 sequence (Q9NYV7 1-291): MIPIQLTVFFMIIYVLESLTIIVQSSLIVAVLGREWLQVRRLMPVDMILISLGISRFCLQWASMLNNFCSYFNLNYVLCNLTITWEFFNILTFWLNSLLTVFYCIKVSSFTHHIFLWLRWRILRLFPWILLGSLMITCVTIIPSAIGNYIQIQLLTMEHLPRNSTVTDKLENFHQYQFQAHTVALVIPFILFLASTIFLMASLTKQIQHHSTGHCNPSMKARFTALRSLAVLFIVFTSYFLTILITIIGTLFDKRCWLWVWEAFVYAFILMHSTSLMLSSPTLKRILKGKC

[8] = AGTR1 (angiotensin II receptor, type 1), read-out: % GPCR activation compared to TPA
[9] = GPR19 (G Protein-Coupled Receptor 19), read-out: % GPCR activation compared to TPA
[10] = MRGE (MAS-related GPR, member E), read-out: % GPCR activation compared to TPA
[11] = MRGPRE (MAS-related GPR, member E), read-out: % GPCR activation compared to TPA
[12] = GPR126 (Adhesion G Protein-Coupled Receptor G6 (ADGRG6)), read-out: % GPCR activation compared to TPA
[13] = GPCR GPR64 (G protein-coupled receptor 64), read-out: % GPCR activation compared to TPA
[14] = GPCR GPR101 (G protein-coupled receptor 101), read-out: % GPCR activation compared to TPA
[15] = TAS2R16 (taste receptor, type 2, member 16), read-out: % GPCR activation compared to TPA
[16] = read-out: % GPCR activation compared to TPA, AGTR1 (angiotensin II receptor, type 1)
[17] = read-out: % GPCR activation compared to TPA, GPR19 (G Protein-Coupled Receptor 19)
[18] = read-out: % GPCR activation compared to TPA, MRGE (MAS-related GPR, member E)
[19] = read-out: % GPCR activation compared to TPA, MRGPRE (MAS-related GPR, member E)
[20] = read-out: % GPCR activation compared to TPA, GPR126 (Adhesion G Protein-Coupled Receptor G6 (ADGRG6))
[21] = read-out: % GPCR activation compared to TPA, GPCR GPR64 (G protein-coupled receptor 64)
[22] = read-out: % GPCR activation compared to TPA, GPCR GPR101 (G protein-coupled receptor 101)
[23] = read-out: % GPCR activation compared to TPA, TAS2R16 (taste receptor, type 2, member 16)

T3 sequence (Q86SM8 whole entry): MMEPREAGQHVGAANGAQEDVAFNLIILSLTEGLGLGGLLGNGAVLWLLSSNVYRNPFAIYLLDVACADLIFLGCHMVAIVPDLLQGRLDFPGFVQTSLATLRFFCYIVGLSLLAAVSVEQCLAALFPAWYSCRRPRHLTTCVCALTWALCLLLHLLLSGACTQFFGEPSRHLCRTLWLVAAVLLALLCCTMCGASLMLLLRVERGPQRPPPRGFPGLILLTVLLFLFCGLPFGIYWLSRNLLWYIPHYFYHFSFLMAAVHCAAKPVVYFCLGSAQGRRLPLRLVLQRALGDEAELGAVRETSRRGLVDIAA
T5 sequence (Q8IZP9 38-1017): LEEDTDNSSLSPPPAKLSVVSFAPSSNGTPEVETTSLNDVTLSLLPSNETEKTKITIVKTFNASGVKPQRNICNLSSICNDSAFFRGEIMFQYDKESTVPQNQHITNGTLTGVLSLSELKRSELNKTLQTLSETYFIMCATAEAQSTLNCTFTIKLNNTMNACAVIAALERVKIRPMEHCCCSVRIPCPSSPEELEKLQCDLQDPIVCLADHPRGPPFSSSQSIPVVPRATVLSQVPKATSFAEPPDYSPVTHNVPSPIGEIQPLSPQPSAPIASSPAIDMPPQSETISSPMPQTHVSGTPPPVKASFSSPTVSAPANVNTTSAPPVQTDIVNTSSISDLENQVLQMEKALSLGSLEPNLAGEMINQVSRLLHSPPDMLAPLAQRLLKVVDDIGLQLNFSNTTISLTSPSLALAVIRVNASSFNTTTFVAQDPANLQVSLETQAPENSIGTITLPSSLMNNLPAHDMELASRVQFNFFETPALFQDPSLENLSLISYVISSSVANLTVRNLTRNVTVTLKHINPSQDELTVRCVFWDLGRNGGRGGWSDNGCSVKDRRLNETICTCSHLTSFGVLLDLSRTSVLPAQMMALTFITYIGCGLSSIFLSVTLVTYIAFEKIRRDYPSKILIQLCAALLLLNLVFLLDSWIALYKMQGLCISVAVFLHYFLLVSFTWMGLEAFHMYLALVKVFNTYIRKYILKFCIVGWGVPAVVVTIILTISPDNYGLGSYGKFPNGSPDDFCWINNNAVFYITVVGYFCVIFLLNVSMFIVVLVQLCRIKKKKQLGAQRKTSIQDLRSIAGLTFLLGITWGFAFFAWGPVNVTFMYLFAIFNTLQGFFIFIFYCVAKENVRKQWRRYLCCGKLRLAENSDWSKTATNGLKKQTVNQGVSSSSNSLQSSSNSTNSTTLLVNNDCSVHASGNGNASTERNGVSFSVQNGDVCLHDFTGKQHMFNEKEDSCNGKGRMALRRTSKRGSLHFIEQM
T2 sequence (Q15760 whole entry): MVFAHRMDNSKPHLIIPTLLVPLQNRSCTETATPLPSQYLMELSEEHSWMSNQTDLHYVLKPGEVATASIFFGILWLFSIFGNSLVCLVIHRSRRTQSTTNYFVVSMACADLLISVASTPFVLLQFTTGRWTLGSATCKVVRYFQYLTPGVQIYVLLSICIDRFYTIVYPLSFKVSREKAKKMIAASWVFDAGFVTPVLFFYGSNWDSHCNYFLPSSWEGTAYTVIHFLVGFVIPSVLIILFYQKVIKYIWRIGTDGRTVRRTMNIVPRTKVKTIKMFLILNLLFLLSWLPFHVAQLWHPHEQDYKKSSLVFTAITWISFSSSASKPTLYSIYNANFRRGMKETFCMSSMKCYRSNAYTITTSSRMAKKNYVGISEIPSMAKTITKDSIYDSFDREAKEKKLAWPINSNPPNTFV

SMILES | activation at 10 µM [1, 8] [%] | activation at 100 µM [2, 9] [%] | activation at 100 µM [3, 10] [%] | activation at 100 µM [3, 11] [%] | activation at 100 µM [4, 12] [%] | activation at 10 µM [5, 13] [%] | activation at 10 µM [6, 14] [%] | activation at 100 µM [7, 15] [%] | activation at 10 µM [1, 16] [%] | activation at 100 µM [2, 17] [%] | activation at 100 µM [3, 18] [%] | activation at 100 µM [3, 19] [%] | activation at 100 µM [4, 20] [%] | activation at 10 µM [5, 21] [%] | activation at 10 µM [6, 22] [%] | activation at 100 µM [7, 23] [%] | activation at 100 µM ([5]; GPCR GPR64 (G protein-coupled receptor 64), 100μM, read-out: % GPCR activation compared to TPA) [%] | activation at 100 µM ([6]; GPCR GPR101 (G protein-coupled receptor 101), 100μM, read-out: % GPCR activation compared to TPA) [%]
N#C[C@@]1(c2ccc3c(N)ncnn23)O[C@H](CO)[C@@H](O)[C@H]1O [GS441524] | 1.08 | -0.932 | -0.92 | -0.879 | -3.47 | -4.34 | -0.779 | -2.06 | – | – | – | – | – | – | – | – | – | –
CCC(CC)COC(=O)[C@H](C)N[P@](=O)(OC[C@H]1O[C@@](C#N)(c2ccc3c(N)ncnn23)[C@H](O)[C@@H]1O)Oc1ccccc1 [remdesivir] | – | – | – | – | – | – | – | – | 1.2 | -1.37 | -2.75 | -1.08 | -0.536 | -4.08 | 1.7 | 0.556 | – | –
CC(C)OC(=O)[C@H](C)N[P@](=O)(OC[C@H]1O[C@@H](n2ccc(=O)[nH]c2=O)[C@](C)(F)[C@@H]1O)Oc1ccccc1 [sofosbuvir] | – | – | – | – | – | – | – | – | 2.52 | -1.2 | -1.05 | 0.355 | -2.49 | -7.7 | -3.4 | -1 | – | –
NC(=O)c1nc(F)cnc1O [favipiravir, 6-fluoro-3-hydroxy-2-pyrazinecarboxamide] | 0.178 | -0.654 | -2.09 | -1.34 | -2.03 | – | – | 0.411 | – | – | – | – | – | – | – | – | -2.31 | -0.717
CC(C)C(=O)OC[C@H]1O[C@@H](n2ccc(NO)nc2=O)[C@H](O)[C@@H]1O [molnupiravir] | -0.396 | -0.76 | -1.17 | -1.32 | -3.31 | -5.62 | -0.865 | -0.65 | – | – | – | – | – | – | – | – | – | –
